Data published in patent publication US10683293B2, “Optionally fused heterocyclyl-substituted derivatives of pyrimidine useful for the treatment of inflammatory, metabolic, oncologic and autoimmune diseases” (NUEVOLUTION A/S, priority 2014, dated 2020).

Columns and labels:
[1] = molecular target: T1, human RORγt (Ligand Binding Domain) (Homo sapiens, UniProt P51449); experiment: Fluorescence Polarization (FP) Assay; settings: 100 nM human RORγt LBD, 25 nM TAMRA probe, values are activity range bounds
T1 construct: purchased Crelux (Planegg, Germany) batch no PC5032-1
T1 sequence (P51449 269-508 limits assumed): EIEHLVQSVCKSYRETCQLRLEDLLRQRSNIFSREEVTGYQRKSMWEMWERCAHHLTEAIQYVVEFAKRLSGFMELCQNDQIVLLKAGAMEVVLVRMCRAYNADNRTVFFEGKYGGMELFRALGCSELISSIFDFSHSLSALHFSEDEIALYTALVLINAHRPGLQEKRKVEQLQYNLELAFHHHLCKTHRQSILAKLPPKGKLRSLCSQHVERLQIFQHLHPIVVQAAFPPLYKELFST
How it was run: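 Binding to the RORγt ligand-binding domain was followed by FP. Displacement of a TAMRA-tagged RORγt ligand tracer (910 g/mol) was measured, with DMSO-only wells as negative control.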

[2] = molecular target: T2, ligand binding domain of human RORγ (Homo sapiens, UniProt P51449); experiment: RORγ Reporter Assay (Gal4); type: cell-based; settings: for inhibition at 1 µM: HEK-293T, read-out: Gal4 activity range @ 1 μM (% inhibition); for Gal4 activity range @ 0.1 μM (% inhibition): RORγ Reporter Assay (Gal4), HEK293t reporter cells, compound at 0.1 μM, values are activity range bounds
T2 construct: host or cells: HEK293t
T2 sequence (P51449 269-508 limits assumed): T1 sequence (P51449 269-508 limits assumed)
How it was run: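 HEK293t cells expressing Gal4 DBD–human RORγ LBD hybrid with Gal4-UAS firefly luciferase reporter; compounds at final 1,000 nM and 100 nM (0.1% DMSO), triplicate, medium with 10% charcoal-stripped FBS, 24 h at 37 °C. Luminescence read; percent reduction of RORγ activity calculated versus vehicle-only wells.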

[3] = 1 μM test compound, HEK293t RORγ reporter cells, 24 hour

SMILES	IC50 [1] [nM]	inhibition at 1 µM [2, 3] [%]	Gal4 activity range @ 0.1 μM (% inhibition) [2] [% inhibition]	Gal4 activity range @ 1 μM (% inhibition) ([2]; 1 μM test compound, HEK293t RORγ reporter cells, 24 hour, 1 µM) [%]
NC(=O)Cc1ccc(CNc2ncnc(N(Cc3c(F)cccc3Cl)C3CC3)c2F)cc1 [Example A65, 2-[4-[[[6-[(2-chloro-6-fluoro-phenyl)methyl-cyclopropyl-amino]-5-fluoro-pyrimidin-4-yl]amino]methyl]phenyl]acetamide]	< 500	> 50	>20	–
NC(=O)Cc1ccc(CNc2ncnc(N(Cc3ccccc3Cl)C3CC3)c2F)cc1 [Example A66, 2-[4-[[[6-[(2-chlorophenyl)methyl-cyclopropyl-amino]-5-fluoro-pyrimidin-4-yl]amino]methyl]phenyl]acetamide]	< 500	> 50	>20	–
Cc1cccc(Cl)c1CN(c1ncnc(NCc2ccc(CC(N)=O)cc2)c1F)C1CC1 [Example A67, 2-[4-[[[6-[(2-chloro-6-methyl-phenyl)methyl-cyclopropyl-amino]-5-fluoro-pyrimidin-4-yl]amino]methyl]phenyl]acetamide]	< 500	> 50	>20	–
CC(c1ccc(C(F)(F)F)cc1)N(c1ncnc(NCC2CCN(S(C)(=O)=O)CC2)c1F)C1CC1 (stereo not shown) [Example A73, N4-cyclopropyl-5-fluoro-N6-[(1-methylsulfonyl-4-piperidyl)methyl]-N4-[1-[4-(trifluoromethyl)phenyl]ethyl] pyrimidine-4,6-diamine]	< 500	> 80	>80	–
FCC1(CNc2ncnc(N(Cc3ccc(C(F)(F)F)cc3)C3CC3)c2F)CCOCC1 [Example A75, N4-cyclopropyl-5-fluoro-N6-[[4-(fluoromethyl)tetrahydropyran-4-yl]methyl]-N4-[[4-(trifluoromethyl)phenyl]methyl] pyrimidine-4,6-diamine]	< 500	> 80	>80	–
NC(=O)Cc1ccc(CNc2ncnc(N(Cc3c(Cl)cccc3Cl)C3CC3)c2F)cc1 [Example A77, 2-[4-[[[6-[cyclopropyl-[(2,6-dichlorophenyl)methyl]amino]-5-fluoro-pyrimidin-4-yl]amino]methyl]phenyl]acetamide]	< 500	> 50	>20	–
CNC(=O)CC1(CNc2ncnc(N(Cc3ccc(C(F)(F)F)cc3)C3CC3)c2F)CCOCC1 [Example A80, 2-[4-[[[6-[cyclopropyl-[[4-(trifluoromethyl)phenyl]methyl]amino]-5-fluoro-pyrimidin-4-yl]amino]methyl]tetrahydropyran-4-yl]-N-methyl-acetamide]	< 500	> 80	>20	–
CN(c1ncnc(NCc2ccc(CC(N)=O)cc2)c1F)C1(c2ccc(C(F)(F)F)cc2)CC1 [Example A81, 2-[4-[[[5-fluoro-6-[methyl-[1-[4-(trifluoromethyl)phenyl]cyclopropyl]amino]pyrimidin-4-yl]amino]methyl]phenyl]acetamide]	< 500	> 80	>50	–
CC1(c2ccc(CNc3ncnc(N(Cc4ccc(C(F)(F)F)cc4)C4CC4)c3F)cc2)NC(=O)NC1=O (stereo not shown) [Example A82, 5-[4-[[[6-[cyclopropyl-[[4-(trifluoromethyl)phenyl]methyl]amino]-5-fluoro-pyrimidin-4-yl]amino]methyl]phenyl]-5-methyl-imidazolidine-2,4-dione]	< 1000	> 80	>20	–
NC(=O)Cc1ccc(CNc2ncnc(N(Cc3ccc(C(F)(F)F)cn3)C3CC3)c2F)cc1 [Example A85, 2-[4-[[[6-[cyclopropyl-[[5-(trifluoromethyl)-2-pyridyl]methyl]amino]-5-fluoro-pyrimidin-4-yl]amino]methyl]phenyl]acetamide]	< 500	> 80	>50	–
CS(=O)(=O)c1ccc(CNc2ncnc(N(Cc3ccc(C(F)(F)F)cc3)C3CC3)c2F)cn1 [Example A89, N6-cyclopropyl-5-fluoro-N4-[(6-methylsulfonyl-3-pyridyl)methyl]-N6-[[4-(trifluoromethyl)phenyl]methyl] pyrimidine-4,6-diamine]	< 500	> 80	>80	–
O=S(=O)(Nc1ccc(CNc2ncnc(N(Cc3ccc(C(F)(F)F)cc3)C3CC3)c2F)cc1)C(F)F [Example A91, N-[4-[[[6-[cyclopropyl-[[4-(trifluoromethyl)phenyl]methyl]amino]-5-fluoro-pyrimidin-4-yl]amino]methyl]phenyl]-1,1-difluoro-methanesulfonamide]	< 500	> 80	>80	–
NC(=O)CC1CC(CNc2ncnc(N(Cc3ccc(C(F)(F)F)cc3)C3CC3)c2F)C1 (stereo not shown) [Example A95, 2-[3-[[[6-[cyclopropyl-[[4-(trifluoromethyl)phenyl]methyl]amino]-5-fluoro-pyrimidin-4-yl]amino]methyl]cyclobutyl] acetamide]	< 1000	> 80	>20	–

Now from value to molecule:

IC50 [1] [nM]	inhibition at 1 µM [2, 3] [%]	Gal4 activity range @ 0.1 μM (% inhibition) [2] [% inhibition]	Gal4 activity range @ 1 μM (% inhibition) ([2]; 1 μM test compound, HEK293t RORγ reporter cells, 24 hour, 1 µM) [%]	SMILES
< 500	> 80	>50	–	N#Cc1ccc(CN(c2ncnc(NCc3ccc(CC(N)=O)cc3)c2F)C2CC2)cc1 [Example A64, 2-[4-[[[6-[(4-cyanophenyl)methyl-cyclopropyl-amino]-5-fluoro-pyrimidin-4-yl]amino]methyl]phenyl]acetamide]
< 500	–	>0	>50	CCCn1nc(C)cc1CN(C)c1ncnc(NCc2ccc(CC(N)=O)cc2)c1F [Example A68, 2-[4-[[[5-fluoro-6-[methyl-[(5-methyl-2-propyl-pyrazol-3-yl)methyl]amino]pyrimidin-4-yl]amino]methyl]phenyl]acetamide]
< 500	> 50	>0	–	CC(c1ccc(C(F)(F)F)cc1)N(c1ncnc(NCc2ccc(NS(=O)(=O)C(F)(F)F)cc2)c1F)C1CC1 (stereo not shown) [Example A74, N-[4-[[[6-[cyclopropyl-[1-[4-(trifluoromethyl)phenyl]ethyl]amino]-5-fluoro-pyrimidin-4-yl]amino]methyl]phenyl]-1,1,1-trifluoro-methanesulfonamide]
< 500	> 80	>80	–	C[S+]([O-])c1ccc(CNc2ncnc(N(Cc3ccc(C(F)(F)F)cc3)C3CC3)c2F)cc1 (stereo not shown) [Example A76, N4-cyclopropyl-5-fluoro-N6-[(4-methylsulfinylphenyl)methyl]-N4-[[4-(trifluoromethyl)phenyl]methyl] pyrimidine-4,6-diamine]
< 500	> 80	>50	–	NC(=O)Cc1ccc(CNc2ncnc(N(Cc3ccc(C(F)(F)F)cc3)C3CC3)c2F)cn1 [Example A78, 2-[5-[[[6-[cyclopropyl-[[4-(trifluoromethyl)phenyl]methyl]amino]-5-fluoro-pyrimidin-4-yl]amino]methyl]-2-pyridyl]acetamide]
< 1000	> 20	–	–	O=C(O)CC1(CNc2ncnc(N(Cc3ccc(C(F)(F)F)cc3)C3CC3)c2F)CCOCC1 [Example A79, 2-[4-[[[6-[cyclopropyl-[[4-(trifluoromethyl)phenyl]methyl]amino]-5-fluoro-pyrimidin-4-yl]amino]methyl]tetrahydropyran-4-yl]acetic acid]
< 500	> 80	>50	–	NC(=O)Cc1ccc(CNc2ncnc(N(Cc3ccc(C(F)(F)F)nc3)C3CC3)c2F)cc1 [Example A83, 2-[4-[[[6-[cyclopropyl-[[6-(trifluoromethyl)-3-pyridyl]methyl]amino]-5-fluoro-pyrimidin-4-yl]amino]methyl]phenyl]acetamide]
< 500	> 50	>0	–	Fc1c(NCc2ccc(Cc3nnn[nH]3)cc2)ncnc1N(Cc1ccc(-n2cccn2)cc1)C1CC1 [Example A88, N4-cyclopropyl-5-fluoro-N4-[(4-pyrazol-1-ylphenyl)methyl]-N6-[[4-(1H-tetrazol-5-ylmethyl)phenyl]methyl]pyrimidine-4,6-diamine]
< 500	> 0	–	–	CC(C)n1nc(C2CC2)cc1CN(c1ncnc(NCc2ccc(CC(N)=O)cc2)c1F)C1CC1 [Example A90, 2-[4-[[[6-[cyclopropyl-[(5-cyclopropyl-2-isopropyl-pyrazol-3-yl)methyl]amino]-5-fluoro-pyrimidin-4-yl]amino]methyl]phenyl]acetamide]
